Data taken from a melting point compilation (Tetko et al.; mined from patent text by program, amines drawn as free bases though some values may be those of a salt).

melting point [°C]	SMILES
130 to 133	CC12CCC3c4ccc(O)cc4CCC3C1CCC2=CCl (stereo not drawn)
240 to 241	O=C1NCCc2c(-c3cccc(Oc4ccc(F)cc4)c3)[nH]c3cccc1c23
74	COc1ccc(CN2C(=O)C(C)(c3cc(N(C)C(=O)C4CCCN4C(C)=O)ccc3Cl)c3cc(Cl)ccc32)c(OC)c1 (stereo not drawn)
88 to 91.5	COC(=O)C(C)n1nnc2ccc(OCc3ccccc3)cc21 (stereo not drawn)
129 to 130	CN(C)CCN1C(=O)c2cscc2N(C)c2ncccc21
104 to 105	N=C(N)c1c[nH]c2ccc(CCNC(=O)c3ccc(-c4ccnc(OCCN5CCCC5)n4)cc3)cc12
128 to 130	CCOCc1nc2c(N)nc3cc(Br)ccc3c2n1CC1(O)CCCC1
185 to 188	CC(C)c1cccc(C(C)C)c1NC(=O)N(Cc1ccc(O)cc1)CC1(c2c[nH]cn2)CCCCC1
166 to 169	Cc1ccc(-c2cc(CO)nn2-c2ccc(S(N)(=O)=O)cc2)cc1
231 to 233	c1ccc(-c2cn3cnnc3cn2)cc1
158 to 161	N#CCC(O)(c1ccc(Br)cc1)c1cccnc1 (stereo not drawn)
140 to 150	CC(C)(C)NC(=O)CN1C(=O)C(N)CC(c2ccc(Cl)c(Cl)c2)c2ccccc21 (stereo not drawn)
290	COC(=O)c1cc(C(=O)c2ncc3ccc(C(=O)O)cn23)ccc1[N+](=O)[O-]
165 to 166	CCOC(=O)c1sc2ccc3c(c2c1Cl)O[C@@H](CO)CO3
141	COc1cc(OCC(=O)O)c(C)cc1SCc1ccc(-c2c(C)cc(C)cc2C)cc1
192	Cc1nc(N2CCN(Cc3ccccc3)CC2)ncc1C(=O)O
154 to 155	CC(C(O)=S)c1sc(S(N)(=O)=O)cc1[N+](=O)[O-] (stereo not drawn)

melting point [°C]	SMILES
> 300	O=c1ccc2c(-c3ccncc3)nccc2[nH]1
235	CN(C(=O)CN(C(=O)CNC(=O)Nc1cccc(N2CCCCC2)c1)c1ccccc1)c1ccccc1
188 to 189	C=C(C)C1=CC(C)(C)Oc2c(OCC)cc(Cc3cnc(N)nc3N)cc21
95 to 98	CCOC(=O)COc1coc(C)cc1=O
206 to 208	Cc1c(F)cccc1Cc1c(-c2ccccc2)c2cc(O)cnn2c1C(=O)N1CCNCC1
278 to 281	c1ccc2c(c1)cnn2-c1nc(NC2CCCCC2)c2ccccc2n1
262 to 263	CCOc1c(OC)cc(C(=O)O)c(-c2c(C(=O)O)cc(OC)c3c2OCO3)c1OCC
156 to 158	N#CCc1ccc(Oc2ccc3c(c2)S(=O)(=O)NC2CCCN32)cc1 (stereo not drawn)
72 to 74	OCc1cc2occc2cn1
67.5 to 68.5	C=CC1CC1(C(=O)OC)C(=O)OCc1ccco1 (stereo not drawn)
128 to 129	CCCCC1(CCCC)CCc2c(OCc3ccc4ccccc4n3)ccc(F)c2C1O (stereo not drawn)
141 to 144	CCN(CC)CC1CCCCN1CC(=O)N1c2ccccc2NC(=O)c2c1ccn2C (stereo not drawn)
112 to 114	CCCCN(C)C(=O)CSCCCCCOc1ccc(C2=C(c3ccccc3)CCCc3cc(O)ccc32)cc1
229 to 231	NC(=O)c1nnn(Cc2ccc(C(=O)c3ccc(Cl)cc3)cc2)c1N
171 to 173	CN(C(CCn1c(=O)cc(Cl)[nH]c1=O)C(=O)NO)S(=O)(=O)c1ccc(Oc2ccc(Cl)cc2)cc1 (stereo not drawn)
171 to 172	CCO/C(=N/O)C1Cc2cc(C(=O)c3ccccc3F)c(O)c(Cl)c2O1 (stereo not drawn)

SMILES	melting point [°C]
CCCc1nnc2n1-c1sc(CC)cc1C(c1ccccc1Cl)=NC2NC(=O)c1ccc2ccccc2c1 (stereo not drawn)	226 to 227
CCN1CCC(O)(c2cc(F)cc(Cl)c2)C1 (stereo not drawn)	117 to 118
C=C1NC(=O)N(Cc2ccccc2)C1=N	139 to 141
O=C1CCC(=O)N1CC#CCN1CCCC1	93 to 94
COC(=O)[C@]12CN(Cc3ccccc3)C[C@@H]1C(=O)CC[C@@]2(C)c1ccccc1 (racemic)	115
